Entries after “also recorded” stand apart in the source; their conditions may differ.

What all share (type): cell-based
Test [1] deals with translation of Luciferase Reporter under translational control mediated by Sg3 of Nrf2. Kind of test: Nrf2 translation biosensor screen: firefly luciferase reporter fused with Seg3, stop codons in between; library of 127 compounds. To be noted: FIG. 3B; screen of library of 127 compounds. The text has this:
(§1) FIGS. 3A to 3D show the construction of a translation reporter system to identify compounds that derepress Nrf2 translation. FIG. 3A is a schematic representation showing that the sequence of the firefly luciferase reporter gene was fused with the Seg3 fragment to create a translation reporter system i.e. a biosensor for Nrf2. […] A small library of 127 compounds containing more than 80 known antioxidants was screened to identify potential activators of Nrf2 translation. […] HEK 293T cells were transfected with a construct a Nrf2 lacking amino acids 17-32 to prevent the degradation mediated by Keap1.
A construct containing the luciferase gene fused with the Seg3 with stop codons in between the two fragments was developed. A library of 127 well known antioxidants was screened.
A stop codon is indicated with bold letters and a dark grey shade. The sequence corresponding to sg3 is indicated in the light grey shade area. The sequence was expressed using a plasmid with a CMV promoter.
In general terms: A reporter such as luciferase makes a cellular process visible.

The test system of test [2] is Nrf2 translation (entire Nrf2 ORF mRNA). The test is described as follows: Western blot of Nrf2 translation in HEK 293T cells transfected with Nrf2 construct lacking amino acids 17-32. Particulars: for Nrf2 translation (Nrf2 protein expression by blot): FIG. 3C / FIG. 4, HEK 293T cells, Nrf2 construct lacking amino acids 17-32 (no Keap1-mediated degradation).
Description: as §1
HEK293T cells were transfected with an Nrf2 construct lacking amino acids that are required for KEAP1 mediated degradation. 24 hours later the cells were treated with Apigenin in incremental doses to evaluate Nrf2 translation activation by using Western blotting.
For orientation: In western blotting, separated proteins are transferred to a membrane and probed.

For a further test, the system named is Nrf2. The test is described as follows: Nuclear translocation of Nrf2: subcellular fractionation and Western blot of HEK293T cells transfected with wildtype Nrf2. To be noted: FIG. 6; HEK293T cells with wildtype Nrf2, harvested 12 hours after treatment, cytoplasm vs nucleus. Here is the method:
HEK293T cells were transfected with a plasmid containing the wildtype sequence of Nrf2. After 24 hours the cells were treated with Apigenin. After additional 12 hours, the cells were harvested and subjected to subcellular fractionation. The presence of Nrf2 in the cytoplasm and nucleus was evaluated using Western blotting. Additionally, tubulin and histone 3 were identified by Western blot to validate the subcellular fractionation.

For `O=c1cc(-c2ccc(O)cc2)oc2cc(O)cc(O)c12` [Apigenin], the “translation of the Luciferase Reporter under translational control mediated by Sg3” value in test [1] was “promoted the translation of Nrf2; also recorded: increased the translation”. The “Nrf2 translation (Nrf2 protein expression by blot)” value in test [2] was “potent activator of NRF2 translation”; in test [2] (listed as apigenin), “potent inducers of Nrf2 translation; also recorded: most potent inducer of Nrf2 translation”. The “Nrf2 translation activation, dose dependence” value in test [2] (FIG. 5, HEK293T cells, treated 24 hours after transfection with incremental doses, Western blotting) is listed as “activates Nrf2 translation in a dose-dependent manner”. The “nuclear translocation of Nrf2” value in the test with Nrf2 was “nuclear translocation of Nrf2”.

As for `Oc1ccc(C=Cc2cc(O)cc(O)c2)cc1` [resveratrol], the “translation of the Luciferase Reporter under translational control mediated by Sg3” value in test [1] is recorded as “promoted the translation of Nrf2; also recorded: increased the translation”. For the same molecule, in test [2], the “Nrf2 translation (Nrf2 protein expression by blot)” value is recorded as “potent inducers of Nrf2 translation”.

On to `O=c1cc(-c2ccc(O)c(O)c2)oc2cc(O)cc(O)c12` [luteolin], for which, in test [2], the “Nrf2 translation (Nrf2 protein expression by blot)” value was “increase the translation of Nrf2”.

On to `C[S+]([O-])CCCCN=C=S` (centres unmarked) [sulforaphane], for which, in test [2], the “Nrf2 translation (Nrf2 protein expression by blot)” value is recorded as “no effect”.

As for `CC(C)(C)c1cc(O)ccc1O` [TBHQ], the “Nrf2 translation (Nrf2 protein expression by blot)” value in test [2] was “no effect”.

For `O=c1c(O)c(-c2ccc(O)c(O)c2)oc2cc(O)cc(O)c12` [quercetin], the “Nrf2 translation (Nrf2 protein expression by blot)” value in test [2] is given as “increase the translation of Nrf2”.

Source of the values: US10054583B2, “Nuclear factor-erythroid 2 related factor 2 (NRF2) biosensors and modulators of NRF2” (TEMPLE UNIVERSITY OF THE COMMONWEALTH SYSTEM OF HIGHER …, priority 2012, dated 2018).
